Assay results reported in PubChem BioAssay (NCI).
“And” between values parts separate entries of the source, which are not always exact repeats. Equal values may be shown once.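 Each compound was tested at five concentrations against cells in 96-well plates for 48 hours. GI50 marks 50% less growth. TGI marks complete inhibition of growth.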 *1 amine or outer side, *2 acyl side, *3 side chain or, on linkers, in order; H or OH if unused. Where a SMILES comes first, the peptide text is derived from it. Bridges are numbered along the chain shown (N, C = ends). Roman numbers before positions name the chains, in order. [ ]: non-standard residue; d: D form. Actinocin(9to1) = Cc1c2oc3c(C)ccc(C(=O)[*:1])c3nc-2c(C(=O)[*:2])c(N)c1=O; NMeF = CN[CH](Cc1ccccc1)C(=O)O; Sar = CNCC(=O)O

Columns and labels:
Assay in all cases: NCI-60 cell line screen, 48 h
HOP-62 NSCLC = system: HOP-62 NSCLC
HL-60(TB) leukemia = system: HL-60(TB) leukemia
KM12 colon = system: KM12 colon
SK-OV-3 ovarian = system: SK-OV-3 ovarian
MOLT-4 leukemia = system: MOLT-4 leukemia
COLO 205 colon = system: COLO 205 colon
SW-620 colon = system: SW-620 colon
SN12C renal = system: SN12C renal
SR leukemia = system: SR leukemia
MDA-MB-435 = system: MDA-MB-435

Structure (SMILES) | GI50 (HOP-62 NSCLC) [µM] | TGI (HOP-62 NSCLC) | GI50 (HL-60(TB) leukemia) [µM] | TGI (HL-60(TB) leukemia) [µM] | GI50 (KM12 colon) [µM] | TGI (KM12 colon) [µM] | GI50 (SK-OV-3 ovarian) [µM] | TGI (SK-OV-3 ovarian) [µM] | GI50 (MOLT-4 leukemia) [µM] | TGI (MOLT-4 leukemia) [µM] | GI50 (COLO 205 colon) [µM] | TGI (COLO 205 colon) [µM] | GI50 (SW-620 colon) [µM] | TGI (SW-620 colon) | GI50 (SN12C renal) | TGI (SN12C renal) [µM] | GI50 (SR leukemia) [µM] | TGI (SR leukemia) [µM] | GI50 (MDA-MB-435) [µM] | TGI (MDA-MB-435)
CC(O)c1cc(C(=O)N[C@@H](C)Cn2ccc(-c3ccc(C#N)c(Cl)c3)n2)n[nH]1 (some centres not stated) | > 100 | > 100 µM | 0.0272 | 0.24 | 76.7 | > 100 | > 100 | > 100 | 0.37 | 5.15 | 54 | > 100 | > 100 | > 100 µM | 48.7 µM | > 100 | 8.06 | > 100 | 32.4 | > 100 µM
N#CC1C=Cc2c(ccc3ccccc23)N1C(=O)c1ccccc1 (configuration not stated) | 0.387 | > 100 µM | 0.171 | – | 0.141 | 3.98 | 0.311 | 29.7 | 0.421 | > 100 | 0.251 | 0.706 | 0.0657 | > 75.2 µM | 1.15 µM | > 100 | 0.1 | – | 0.0383 | 0.664 µM
Cc1c2oc3c(C)ccc(C(=O)NC4C(=O)NC(C(C)C)C(=O)N5CCCC5C(=O)N(C)CC(=O)N(C)C(Cc5ccccc5)C(=O)OC4C)c3nc-2c(C(=O)NC2C(=O)NC(C(C)C)C(=O)N3CCCC3C(=O)N(C)CC(=O)N(C)C(Cc3ccccc3)C(=O)OC2C)c(N)c1=O (configuration not stated) (I: TVP[Sar][NMeF] / II: TVP[Sar][NMeF]; ester I:1-I:C, II:1-II:C; linker I:N-II:N via Actinocin(9to1); configuration not given here) | – | < 0.0134 µM and 0.0328 µM | 0.00285 | 0.0205 | – | – | – | – | 0.000346 | 0.00414 | 0.00372 | 0.0266 | – | 1.27 µM and 0.139 µM | < 0.01 µM and 0.00213 µM | – | 0.000199 | – | – | < 0.01 µM and 0.095 µM
COc1c(B(O)O)cc(F)cc1-c1nc2ccc3[nH]ncc3c2c2c1CCCC2 | < 0.0212 | 11.5 µM | 0.112 | 10.5 | 1.26 | 7.62 | 1.13 | 13.9 | 1.18 | > 100 | 1.61 | 4.97 | 0.66 | 11.2 µM | 1.15 µM | 15.3 | 0.108 | > 38.6 | 1.78 | 3.6 µM
Cc1ccc(Sc2cc3c(oc2=O)-c2ccccc2OC3O)cc1 (configuration not stated) | 22.5 | 44.7 µM | 16.6 | 37.1 | 21.5 | 49.7 | – | – | 13.3 | 34.2 | 15 | 36.5 | 22.4 | 52.3 µM | 29.4 µM | 73.3 | 18.4 | 46.3 | 27.2 | 54.6 µM
COc1cccc2c1n([O-])c1cccc(OC)c1[n+]2=O | 11 | 36.7 µM | 3.23 | 9.12 | 10.6 | 29.6 | 10.5 | 28.9 | 4.97 | > 100 | 12.1 | 28.5 | 4.91 | 21.7 µM | 6.85 µM | > 100 | 0.897 | 9.36 | 10.9 | 36.2 µM
